We go through 6 molecules from patent US20100178243A1, “Novel method of stabilizing diagnostic and therapeutic compounds in a cationic carrier system” (MediGene AG, priority 2002, published 2010).

A short description of series [1]: Diafiltration: retention of fluorescein dyes in liposome suspension (direct loading). The conditions noted are these: for Conc. marker after diafiltration: 25 mM. Format: physicochemical. The text has this:
Liposomes may be formed by the well-known film method, such as described in the literature.[1] Briefly, from the organic solution of the lipid, or the lipid plus the drug, the solvent is evaporated, and a thin film of lipid (or lipid plus drug) is formed at the inner wall of a flask. The thin molecular film is resuspended in an aqueous phase, which contains the dye, and which may contain further components such as buffers, ions, cryoprotectants, etc. A typical formulation consists of a suspension of 25 mM DOTAP/DOPC 1:1, which is resuspended by a 5 mM solution of the dye.
(§1) As an example, in table 1 the results from some experiments are given. For comparison as well a formulation with anionic lipids was performed. For the anionic liposomes, most of the dye is lost during diafiltration, while for the cationic liposomes a large molar fraction of the dye remains immobilized in the lioposme suspension. […] For the CF experiments a lower bulk concentration of the dye was selected, because in that case binding is so strong, that for higher concentrations the liposomes will be destabilized due to the sterical hindrance by the CF molecules. The fraction of dye which was found immobilized in the suspensions from cationic liposomes was much higher that for the (anionic) DOPG containing liposomes. A band shift (λ max) in the absorption spectrum was observed, which increased as AF<F<CF, indication increasing binding strength. On the contrary, for the DOPG liposomes, no shift of the absorption maximum occurred. This can be seen most clearly in FIG. 1, where the complete spectra for the free and the liposomal dyes are depicted.
Separation of low molecular compounds from the liposomal suspensions Diafiltration techniques were used to separate low molecular components from the liposomal suspensions. For the above described 15 mM DOTAP/DOPC 1:1 formulations with 5 mM dye in the aqueous phase, ca. 50% of the dye was retained in the liposome suspension for AF, and 60% was retained for F. With 0.5 mM of CF, virtually 100% of the dye was retained in the solution (the amount of released dye was monitored by UV-vis)spectroscopy.

Series [2] is described as follows: UV-vis absorption maximum (band shift) of liposome-associated fluorescein dyes. Format: physicochemical. To be noted: 25 mM. The protocol: as §1, with “depicted. All stages of formulation are monitored by HPLC analysis (lipid and drug) and by UV-vis spectroscopy. In HPLC analysis a slight loss of material after extrusion may be observed. UV-vis spectroscopy serves as a qualitative means in order to control formulation efficacy. The UV-vis spectra of the dye are shifted on binding to the lipid. The band shift is a function of the binding constant and the fraction of lipid bound and free dye can be estimated by UV-vis spectroscopy.” for “depicted.”

A short description of series [3]: Remote loading of DOTAP/DOPC liposomes with AF, dialysis and UV-vis. Format: physicochemical. The conditions noted are these: remote loading: 25 mM DOTAP/DOPC liposomes mixed with equal volume of 5 mM AF. The protocol: The association of the dye to the liposomes can be performed as well to an already prepared formulation, by simply mixing the dye solution with the liposome suspension. […] The efficacy of the loading can be determined by diafiltration and by UV-vis and fluorescence spectroscopy of the suspension. As an example the results from remote loading of DOTAP/DOPC liposomes with AF (the most weakly binding fluorescein variety) are given. A 25 mM suspension of the pure lipid liposomes was prepared by the standard procedure. Then a 5 mM solution of AF was added to the suspension (equal volumina). Subsequently the suspension was dialyzed in order to remove the free dye. The dye content in the solution was controlled by UV-vis spectroscopy. In FIG. 2, the spectra after mixing, after dialysis, and after addition of triton are shown. The triton was added in order to destroy the liposomes and the release the lipid-bound dye.

The nature of series [4]: Gel filtration (Microspin S-300 HR) separation of non-associated patent blue from liposomes. Format: physicochemical. The conditions noted are these: 50 μl loaded on Microspin S-300 HR. The protocol: Gel filtration is employed to separate the dye (MW<1000 Da) from the colloidal liposome. The free dye is retained in the pores of the column, the liposomes are so large that they elute without retention in the void volume. It is expected that in a liposomal formulation with a lipid concentration of 10 mM approximately 2% of the aqueous phase is entrapped in the liposomes, 98% are not entrapped (Liposomes a practical approach, Ed. R. R. C. New, IRL Press, Oxford 1990). This amount of dye is to be separated from the liposome by gel filtration.
A Microspin™ S-300 HR column (Amersham) was pre-equilibrated as required in the product description and loaded with 50 μl of the neutral liposomal formulation C. The goal was to investigate whether patent blue not associated with the liposomes can be separated from the liposomal fraction as described in the literature (Reynolds, J. A.; Nozaki, Y.; Tanford, C. Gel-exclusion chromatography on S1000 Sephacryl: application to phospholipid vesicles. Anal Biochem 1983, 130 (2), 471-474.) The majority of the dye was retained on the column, a slightly blue solution eluted (liposomes with associated dye; about 2% as estimated by UV spectroscopy). This illustrates that for neutral liposomes we can apply well-established separation protocols to separate un-associated material. […]

In a further series the test system is A-375 Melanoma. The series can be described thus: Treatment of A-375 melanoma in NMRI nude mice with Taxol and SuccTXL cationic liposomes. Format: in vivo. To be noted: iv, three times a week for three weeks, equitoxic doses; s.c. A-375 tumors; FIG. 9. The protocol: NMRI-nude mice from Elevage Janvier and housed in isolated ventilated cages under save environmental conditions (SPF facility, 22° C., 30-70% humidity, 12 h light/dark cycle) with food and water ad libitum. Experimental design was reviewed and approved by local government.
Tumor cells (A-375 human melanoma cell line, ATCC Nr.: CRL-1619) were grown as described in the data sheet supplied by ATCC. Tumor cells (5×10^6 in PBS) were inoculated s.c. in the right dorsal flank of mice in a volume of 50 μl on day 0.
Mice were assigned to the experimental groups (8 animals per cage), housed and handled (including monitoring of the body weight gain) at least five days before tumor inoculation (=day −6 to 0). Drug treatment begins after the tumors reached a volume of approximately 100 mm^3. […] Equitoxic doses of the compounds were determined in separate experiments, where toxicity was evaluated based on haematological parameters, body weight and animal clinical observations. […]
Animals were clinically monitored during the whole experiment and for at least one week after treatment was finished. […] The tumor dimensions were measured by calliper and the tumor size was calculated according to the following formula: V=πLW^2/6 (L=greatest length, W=width of perpendicular axis). […] The number of red and white blood cells and platelets were determined using an automated cell counter (Abbott Cell Dyn 3500).

The test system of the next series is Ea.Hy cells. The series can be described thus: MTT cell viability assay, 72 h. Format: cell-based. To be noted: Homo sapiens. The protocol:
(§2) A-375 ([…]) and Ea.Hy cells ([…]) is seeded at a constant density (2×10^4/cm^2) in 24-well plates and cultivated over night at conditions of 5-5.5% CO2, 37° C. and ˜90% humidity. At day 1, cell culture medium is replaced by a mixture of fresh medium and a series of 11 consecutive drug dilutions is added to each well (duplicates) to cover a range between 0.1 and 1000 nM final drug concentration. After 72 h, the cell viability in each well is determined by measuring the activity of mitochondrial dehydrogenases (MTT assay). In viable cells the MTT substrate is converted to a blue, cell impermeable dye (Formazan). After 1 h the medium is removed, cells are lysed with isopropanol/0.04% HCl and the amount of the blue Formazan given as optical density at a wavelength of 550 nm (OD550 nm) quantitated in an ELISA reader. The experiment is evaluated using the Sigma Plot analysis software by plotting the mean OD550 nm value against the respective drug concentration. A best fit curve is calculated based on a double-sigmoid assumption algorithm and the IC50 value is determined according to this best fit curve with the following result: […]

In the next series the test system is A-375. Description: MTT cell viability assay, 72 h. Format: cell-based. To be noted: Homo sapiens. The protocol:
as §2
In general terms: Tetrazolium dyes change colour on reduction, which living cells bring about.

Series [5] is described as follows: Liposomal fluoride concentration after dialysis (ion chromatography). To be noted: rehydrated with 150 mM sodium fluoride, 3 dialysis steps. Format: physicochemical. The protocol:
The lipids (either 10 mM DOTAP or 10 mM DOPC) are dissolved in chloroform and the solution is transferred into a round bottom flask. The organic solvent is evaporated under reduced pressure forming a clear lipid film on the flask's surface. This film is dried at 40° C. under vacuum (3 to 5 mbar) for about 60 minutes. Then, the film is rehydrated with the appropriate volume of an aqueous 150 mM sodium fluoride solution resulting in a liposomal solution. The next day, the liposomal solution is extruded 5 times through a 200 nm membrane. The size of the liposomes is determined by PCS (Zetasizer 1000 and 3000, Malvern Instruments). The fluoride that is not associated with the liposomes is removed by 3 successive dialysis steps (8 hours, Pierce, Slide-A-Lyzer dialysis cassette; 10000 molecular weight cut off) and the liposomal fluoride concentration is established by ion chromatography. For cationic 10 mM DOTAP liposomes the fluoride concentration is 1.3 mM, whereas the fluoride ion concentration is about 4 times lower for neutral 10 mM DOPC liposomes (0.3 mM fluoride). The far lower fluoride ion concentration of neutral liposomes is explained by the attractive forces of cationic lipids interacting with the negatively charged halide anion.

Series [6] is described as follows: Chemical stability of succinyl paclitaxel in aqueous solution (HPLC, paclitaxel release). Format: physicochemical. The conditions noted are these: for paclitaxel release: 4° C., 0.1 mM Tris-buffered.

Turning to `Nc1ccc(-c2c3ccc(=O)cc-3oc3cc(O)ccc23)c(C(=O)O)c1` [AF, aminofluorescein], the “dye retained in the liposome suspension after diafiltration” value in series [1] (15 mM DOTAP/DOPC 1:1, 5 mM dye in the aqueous phase) is reported as “ca. 50%”. Besides, in series [1] (DOTAP/DOPC 50/50 liposomes, conc. before diafiltration […]), the “Conc. marker after diafiltration” value came out at 800 µg/mL. Also, the λ max in series [2] (DOTAP/DOPC 50/50 liposomes) turned out to be 497.6 nm. For the same molecule, in series [3], the “dye remained bound to the liposomes after dialysis” value is given as “ca. 50%”.

As for `CCN(CC)c1ccc(C(=C2C=CC(=[N+](CC)CC)C=C2)c2cc(O)c(S(=O)(=O)O)cc2S(=O)(=O)O)cc1` [PB, Patent blue], the “separation of dye from liposomes on gel filtration column (in words)” value in [4] is given as “trapped in the pores of the column material”.

For the molecule `CC(=O)O[C@H]1C(=O)[C@@]2(C)[C@H]([C@H](OC(=O)c3ccccc3)[C@]3(O)C[C@H](OC(=O)[C@H](O)[C@@H](NC(=O)c4ccccc4)c4ccccc4)C(C)=C1C3(C)C)[C@]1(OC(C)=O)CO[C@@H]1C[C@@H]2O` [Taxol ®, Paclitaxel], the “tumor growth rate (in words)” value in the series with A-375 Melanoma is listed as “reduced the tumor growth only to a limited extent”. In addition, the IC50 stood at 3 nM in the series on Ea.Hy cells and 2 nM in the series with A-375.

Consider `[F-].[Na+]` [fluoride, sodium fluoride], for which the figures for the liposomal fluoride concentration in [5] (cationic 10 mM DOTAP liposomes) and in series [5] (neutral 10 mM DOPC liposomes) were 1.3 mM and 0.3 mM, respectively.

For `CC(=O)O[C@H]1C(=O)[C@@]2(C)C([C@H](OC(=O)c3ccccc3)[C@]3(O)C[C@H](OC(=O)C(OC(=O)CCC(=O)O)C(NC(=O)c4ccccc4)c4ccccc4)C(C)=C1C3(C)C)[C@]1(OC(C)=O)CO[C@@H]1C[C@@H]2O` (stereo partly drawn) [succinyl paclitaxel], the paclitaxel release worked out at 4% in series [6] (pH 5, after 9 days); 4% in [6] (pH 7, after 9 days); 70% in series [6] (pH 9, after 9 days). Further, the “paclitaxel release (in words)” value in series [6] (40° C., all pH values (5, 7, 9), within 56 hours) is given as “intensive release of paclitaxel”. Also, the IC50 with Ea.Hy cells came to 17 nM; with A-375 it was 10 nM.

On to carboxy-fluorescein [CF], for which the “dye retained in the liposome suspension after diafiltration” value in series [1] (15 mM DOTAP/DOPC 1:1, 0.5 mM of CF) is listed as about 100%. Also, the “Conc. marker after diafiltration” value in [1] (DOPG/DOPC 95/5 (anionic) liposomes, conc. before diafiltration 1.9 mg/ml) was found to be 120 µg/mL; in [1] (DOTAP/DOPC 50/50 liposomes, conc. before diafiltration 0.19 mg/ml), 190 µg/mL. The λ max in [2] (DOPG/DOPC 95/5 liposomes) is 492.6 nm; in [2] (DOTAP/DOPC 50/50 liposomes), 506 nm.

In general, IC50 refers to the concentration needed to halve the response being measured. A high value points to weaker potency in that assay.
